Data reported in US6605595B1, “Avermectin derivatives” (The Kitasato Institute, priority 1999, dated 2003).

Test system: Adult Musca domestica of WHO(N) species
Assay: Filter test on flies (Musca domestica), ingestion/contact method
Format: in vivo
Conditions: time of reading not stated (1, 3, 5 and 24 hours)
Method: Filter test on flies (Musca domestica)—ingestion/contact method
Test animals: Adult Musca domestica of WHO(N) species
In order to prepare a suitable formulation a solution of active compound is prepared froom 20 mg of active compound and 1 ml of DMSO. The active compound solution is diluted with water to the concentration required in each case.
2 ml of this preparation of active compound are pipetted onto filter paper discs (of a diameter of 9.5 cm) contained in Petri dishes of the appropriate size. After drying the filter discs, 100 μl of the active compound formulation and 400 μl of a sugar solution are poured onto a block of household sponge cloth measuring 1 cm^2 and placed in a blister well on the filter disc. 25 CO2-intoxicated test animals are transferred to the Petri dishes and covered.
After 1, 3, 5 and 24 hours the activity of the active compound preparation is determined. 100% means that all of the flies have been destroyed; 0% means that none of the flies have been destroyed.

For CCC(C)C1OC2(C=CC1C)CC1CC(CC=C(C)C(OC3CC(OC)C(OC4CC(OC)C(=CCNOC)C(C)O4)C(C)O3)C(C)C=CC=C3COC4C(O)C(C)=CC(C(=O)O1)C34O)O2 (centres unmarked) [Compound 69], the “activity (100% = all of the flies destroyed)” value (10 ppm) was 50% and the “activity (100% = all of the flies destroyed)” value (100 ppm) was 100%.
